SMILES strings stand for the structures. Structures can show the parent of a compound that is named as a salt. Where two headings read alike, the source gives them in different places.

In patent US8912216B2, “Hetaryl-[1,8]naphthyridine derivatives” (Merck Patent GmbH, priority 2010, dated 2014) one finds IC50 data, which are given here for twelve molecules.

The target in experiment [1] is T1, GST-ALK5 (Homo sapiens, UniProt P36897).
T1 sequence (P36897 34-503): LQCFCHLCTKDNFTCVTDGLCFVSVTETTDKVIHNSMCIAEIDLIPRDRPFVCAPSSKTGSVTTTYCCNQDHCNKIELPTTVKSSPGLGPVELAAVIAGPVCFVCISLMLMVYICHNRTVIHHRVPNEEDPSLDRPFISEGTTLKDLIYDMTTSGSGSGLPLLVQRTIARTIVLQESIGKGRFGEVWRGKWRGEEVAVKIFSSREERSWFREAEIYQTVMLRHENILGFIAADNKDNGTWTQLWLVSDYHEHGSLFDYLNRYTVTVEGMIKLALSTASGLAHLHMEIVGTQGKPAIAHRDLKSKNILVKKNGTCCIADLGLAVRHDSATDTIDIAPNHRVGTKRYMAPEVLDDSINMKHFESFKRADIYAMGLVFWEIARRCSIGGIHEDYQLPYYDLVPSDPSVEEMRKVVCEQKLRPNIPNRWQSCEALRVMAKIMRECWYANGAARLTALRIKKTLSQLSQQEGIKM
In words: In-vitro (enzyme) kinase assay, 384-well flashplate (Example 36). It counts as biochemical. Conditions: GST-ALK5, GST-SMAD2 substrate, 3 mM ATP, 30° C., 45 min; read-out: TβR activity (Example 36). The essentials:
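Radiometric flashplate assay: 31.2 nM GST-ALK5 phosphorylating 439 nM GST-SMAD2 with 3 mM ATP plus ³³P-ATP, in HEPES/MgCl2/MnCl2/DTT/BSA buffer pH 7.4, 45 min at 30 °C, 5-10 compound concentrations. EDTA stop, filtration and washing, then radioactivity counted; IC50 derived from the curve.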

The test system of experiment [2] is TGF-beta-induced phosphorylation of Smad2 and Smad3 in Mv1-Lu cells. Nature of the experiment: Inhibition of Smad2/3 phosphorylation in Mv1Lu cells (Example 35A). Conditions: Neogale vison, read-out: TβR activity (Example 35A). Format: cell-based, mink Mustela vison. The essentials:
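Serum-starved (16-20 h) Mv1-Lu mink lung epithelial cells were pre-incubated 1.5 h with compound dilutions (0.2% DMSO), then stimulated 1 h with 5 ng/ml TGF-beta 1. Phospho-Smad2 (Ser465/467)/Smad3 (Ser423/425) in lysates was measured by ELISA. IC50 came from dose-response fits between stimulated and unstimulated controls.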

Where [3] appears, read: Mv1-Lu cells, TGF-beta 1 5 ng/ml, phospho-Smad2/3 ELISA.

Regarding `Fc1ccccc1-c1cc(-c2cncc(-c3cnn(CCCN4CCOCC4)c3)c2)c2cccnc2n1` [compound 87, 2-(2-Fluoro-phenyl)-4-{5-[1-(3-morpholin-4-yl-propyl)-1H-pyrazol-4-yl]-pyridin-3-yl}-[1,8]naphthyridine], the values for the IC50 in experiment [1] and in experiment [2] (setting [3]) were below 100 nM and 100 to 1000 nM, respectively.
In the same order, the values of `N#Cc1ccnc(-c2cncc(-c3cc(-c4cc(Cl)ccc4F)nc4ncccc34)c2)c1` [compound 133, 5′-[2-(5-Chloro-2-fluoro-phenyl)-[1,8]naphthyridin-4-yl]-[2,3′]bipyridinyl-4-carbonitrile] are above 10000 nM and above 10000 nM.
In the same order, the values of `CN(C)CCNC(=O)c1cccc(-c2cncc(-c3cc(-c4cc(Cl)ccc4F)nc4ncccc34)c2)c1` [compound 118, 3-{5-[2-(5-Chloro-2-fluoro-phenyl)-[1,8]naphthyridin-4-yl]-pyridin-3-yl}-N-(2-dimethylamino-ethyl)-benzamide] are below 100 nM and 100 to 1000 nM.
In the same order, the values of `Cn1cc(-c2cncc(-c3cc(-c4cc(C(F)(F)F)ccc4F)nc4ncccc34)c2)cn1` [compound 8, 2-(2-Fluoro-5-trifluoromethyl-phenyl)-4-[5-(1-methyl-1H-pyrazol-4-yl)-pyridin-3-yl]-[1,8]naphthyridine] are below 100 nM and 100 to 1000 nM.
With `CN1CCC(n2cc(-c3cncc(-c4cc(-c5ccccc5F)nc5ncccc45)c3)nn2)CC1` [compound 55, 2-(2-Fluoro-phenyl)-4-{5-[1-(1-methyl-piperidin-4-yl)-1H-[1,2,3]triazol-4-yl]-pyridin-3-yl}-[1,8]naphthyridine], the IC50 in experiment [1] and in experiment [2] (setting [3]) was below 100 nM each time.
Turning to `Nc1ncc(-c2cnn(C3CCNCC3)c2)cc1-c1cc(-c2cc(Cl)ccc2F)nc2ncccc12` [compound 13, 3-[2-(5-Chloro-2-fluoro-phenyl)-[1,8]naphthyridin-4-yl]-5-(1-piperidin-4-yl-1H-pyrazol-4-yl)-pyridin-2-ylamine dihydrochloride], the IC50 in experiment [1] and in experiment [2] was below 100 nM in each case.
For the molecule `CN1CCN(c2cccc(-c3cncc(-c4cc(-c5cc(Cl)ccc5F)nc5ncccc45)c3)c2)CC1` [compound 116, 2-(5-Chloro-2-fluoro-phenyl)-4-{5-[3-(4-methyl-piperazin-1-yl)-phenyl]-pyridin-3-yl}-[1,8]naphthyridine], the IC50 in experiment [1] and in experiment [2] (setting [3]) was below 100 nM throughout.
As to `Fc1ccc(Cl)cc1-c1cc(-c2cncc3ccccc23)c2cccnc2n1` [compound 2, 2-(5-Chloro-2-fluoro-phenyl)-4-isoquinolin-4-yl-[1,8]naphthyridine], the results for the IC50 in experiment [1] and in experiment [2] (setting [3]) were 100 to 1000 nM and 1000 to 10000 nM, respectively.
In the same order, the values of `CN1CCN(c2ccc(-c3cncc(-c4cc(-c5cc(F)ccc5F)nc5ncccc45)c3)cc2)CC1` [compound 114, 2-(2,5-Difluoro-phenyl)-4-{5-[4-(4-methyl-piperazin-1-yl)-phenyl]-pyridin-3-yl}-[1,8]naphthyridine] are below 100 nM and below 100 nM.
Regarding `CC(C)N1CCC(c2ccc(-c3cncc(-c4cc(-c5cc(Cl)ccc5F)nc5ncccc45)c3)cc2)CC1` [compound 174, 2-(5-Chloro-2-fluoro-phenyl)-4-{5-[4-(1-isopropyl-piperidin-4-yl)-phenyl]-pyridin-3-yl}-[1,8]naphthyridine], the IC50 in experiment [1] and in experiment [2] (setting [3]) was below 100 nM in each case.
As to `CN(C)CCc1ccc(-c2cncc(-c3cc(-c4cc(Cl)ccc4F)nc4ncccc34)c2)cc1` [compound 162, [2-(4-{5-[2-(5-Chloro-2-fluoro-phenyl)-[1,8]naphthyridin-4-yl]-pyridin-3-yl}-phenyl)-ethyl]-dimethyl-amine], the IC50 in experiment [1] and in experiment [2] (setting [3]) was below 100 nM in each case.
As to `NCCc1ccccc1-c1cncc(-c2cc(-c3cc(Cl)ccc3F)nc3ncccc23)c1` [compound 152, 2-(2-{5-[2-(5-Chloro-2-fluoro-phenyl)-[1,8]naphthyridin-4-yl]-pyridin-3-yl}-phenyl)-ethylamine], the IC50 in experiment [1] and in experiment [2] (setting [3]) was 1000 to 10000 nM throughout.
